Here are results for 6 compounds from patent US10478446B2, “Compounds for use in polycystic kidney disease” (FONDAZIONE CENTRO SAN RAFFAELE OFFICE OF BIOTECHNOLOGY …, priority 2012, dated 2019).

“Also recorded” adds a separate entry of the source.

For series [1], the system named is Pkd1^flox/−:Ksp-Cre mice. The series is described as follows: 2DG treatment of mice with cystic kidneys. The format is in vivo, mouse. Here is the method: For proliferation assays immunostaining was carried our using an anti-Ki67 antibody followed by analysis. For cells, fluorescence was measured on triplicates of 300 cells using the microscope Axioplot (Zeiss). For kidney sections, pictures at 20× were taken using the camera Axio MRc5 (Zeiss) with the microscope Axioplan 2 (Zeiss), positive cells were counted on 6 sections for each group for each experiment using the ImageJ software.
(§1) Generation of Pkd1^flox/−:Ksp-Cre mice was previously described. Briefly, we crossed Pkd1^flox/flox29 and Pkd1^+/−: Ksp-Cre mice in pure C57/B16 genetic background. For treatments 2DG (Sigma-Aldrich) or vehicle (NaCl) were injected subcutaneously daily from P6 until P8 at 500 mg/kg.
(§2) 2DG (Sigma-Aldrich) or vehicle (NaCl) were injected subcutaneously daily from P6 until P8 at 500 mg/kg.
(§3) After sacrifice, kidneys were removed, washed in phosphate-buffered saline (PBS), weighed and fixed in 4% Para formaldehyde (PFA). After incubation in a sucrose in PBS gradient scale from 10% to 30% samples were incubated in 10% glycerol (Sigma) in a mixture of OCT (BIO-OPTICA) and sucrose 30%, finally embedded in OCT. Criostat sections were air-dried 1 h, rehydrated in PBS, incubated in Harris Hematoxylin 1:10 (Sigma Aldrich) for 2 min, washed, incubated in Eosin G (BIO-OPTICA) for 7 min, washed dehydrated and mounted in DEPEX (Sigma).
For Immunohistochemistry 10 μm cryosections were washed in Tween-0.1% in PBS (like all washes), fixed in PAF4%, permeabilized in Triton 0.1% in PBS, incubated in hydrogen peroxide 0.3% for 30 min, blocked for 1 h at room temperature with 5% Normal Goat Serum (Sigma Aldrich) 3% bovine serum albumin (BSA, Sigma) in phosphate-buffered saline, incubated O/N at 4° C. with the Antibody (ab) in blocking buffer diluted at 1:500. Sections were then incubated with the Dako EnVision+System-HRP (Dako). Staining is completed by an incubation with 3,3′ diaminobenzidine tetrahydrochloride (DAB) DAB+Substrate Chromogen System (DakoCytomation) and counterstained with Harris Hematoxylin (Sigma Aldrich). diluted 1/10 for 3 min.
A grid of squares 13.625 μm large was applied to sections of kidneys stained with Hematoxylin-Eosin. Each cross is marked with a dot, number of dots inside the lumen are counted on three litters (218 000 μm^2 for each). The degree of dilatation is determined according to Lu et al., 1999 ^32:1 dot: normal tubules; 2 dots: dilatated tubules; 3-9 dots: Small cysts; ≥10 dots: Cysts.

Series [2] has as its system wt mice (ksp-cre: Pkd1^+/flox). The series is described as follows: 2DG treatment of wt mice. The format is in vivo, mouse. The following applies: 2DG 500 mg/kg daily P6 to P8. Here is the method:
as §1, §2, §3

In series [3] the test system is Pkd1^−/− MEFs. The series is described as follows: Western blot of signalling phosphoproteins (pAMPK, pERK, pS6RP, pLKB1). The format is cell-based, mouse. For orientation: Immunoblotting shows a protein as a band on a membrane.
Description: (§5) Antibodies anti-p-Akt 5473, anti-p-AMPK-Thr172; anti-AMPK, anti-p-S6RP Ser 235/236; anti-S6Rp; anti-p-ERK T202/Y204 and anti-ERK antibodies were from Cell Signaling Technology and used at 1:1000; anti-LC3 NB100 was from Novus Biologicals; anti-actin and anti-tubulin antibodies were from Sigma Aldrich and used at 1:5000. Anti-ki67 was from Novocastra and was used at 1:400. UO126 and rapamycin (Cell Signaling Technologies) were employed at final concentrations of 30 μM and 20 or 50 nM, respectively. AICAR and Metfomin (Sigma Aldrich) were used at the final concentration of 2 mM, oligomycin (Sigma Aldrich) was used at the final concentration of 30 μg/ml.
For western blot analysis, the cells were lysed [lysis buffer: 250 mM sucrose, 20 mM imidazole and 1 mM EDTA, pH 7.4, 0.5% Triton-X 100, supplemented with Protease Inhibitors Cocktail (Amersham) and phosphatase inhibitors (1 mM final of glycerophosphate, sodium orthovanadate and sodium fluoride)]. Total lysates were quantified and Laemmli buffer was added to reach a 1× final concentration. Proteins were resolved in a SDS-PAGE gel and transferred onto PVDF membranes. Next, 5% milk in TBS-T was used for blocking and for secondary antibody incubations, while 2% BSA in TBS-T was used for incubations with primary antibodies. HRP-conjugated secondary antibodies (from Roche) were visualized using the ECL System (Amersham), which were mixed with Super-Femto ECL System from Pierce when necessary.
The test system of series [4] is Pkd1^+/+ MEFs. The following applies: UO126.
Description: as §5
For western blot analysis, the cells were lysed [lysis buffer: 250 mM sucrose, 20 mM imidazole and 1 mM EDTA, pH 7.4, 0.5% Triton-X 100, supplemented with Protease Inhibitors Cocktail (Amersham) and phosphatase inhibitors (1 mM final of glycerophosphate, sodium orthovanadate and sodium fluoride)]. Total lysates were quantified and Laemmli buffer was added to reach a 1× final concentration. Proteins were resolved in a SDS-PAGE gel and transferred onto PVDF membranes. Next, 5% milk in TBS-T was used for blocking and for secondary antibody incubations, while 2% BSA in TBS-T was used for incubations with primary antibodies. […]
For series [5], the system named is PKD mouse model. The following applies: Takiar et al. 2011; cited from earlier work.
The subject of series [6] is Pkd1^+/+ MEFs. The series is described as follows: ATP content of MEFs after oligomycin. The following applies: oligomycin for 5 h, before treatment 102891+/−1042 RLU. The format is cell-based, mouse. Here is the method:
For ATP content evaluation, whole-cell extracts of control and treated MEFs cells were prepared by suspending pellets in lysis buffer as described in Distefano et al, 2009. […] Medium of control and treated MEFs was taken after 24 h at 100% of confluence. The concentration of lactate using EnzyChrom™ L-lactate Assay Kit (BioAssay Systems) and quantified on the final number of cells.

For series [7], the system named is Pkd1^−/− MEFs. In words: Autophagosomes per cell by electron microscopy / autophagy. The format is cell-based, mouse. The following applies: rapamycin 50 nM. Here is the method:
(§4) Cell culture monolayers were fixed for 15 min at 4° C. with PAF 4% and 2.5% glutaraldehyde in 125 mM cacodylate buffer. The monolayers were detached by rubber and centrifuged at high speed. The pellet was post-fixed (1 hour) with 2% OsO4 in 125 mM cacodylate buffer, was washed, dehydrated and embedded in Epon. Conventional thin sections were collect on uncoated grids, stained with uranil and lead citrate and examined in a Leo912 electron microscope.

The subject of series [8] is Pkd1^+/+ MEFs. In words: Autophagosomes per cell by electron microscopy. The format is cell-based, mouse. The following applies: rapamycin 50 nM. Here is the method: as §4
Where [9] appears, read: 2DG 500 mg/kg daily P6 to P8, genotype not stated.
Where [10] appears, read: 2DG 500 mg/kg daily P6 to P8, treated vs untreated mutant kidneys.
Setting [11] is: cystic kidneys treated with 2DG.

In the case of `O=CC[C@@H](O)[C@H](O)[C@H](O)CO` [2DG, 2-deoxyglucose], the “proliferation index in the cystic kidneys (Ki67 assay)” value in series [1] (2DG 500 mg/kg daily P6 to P8, vs vehicle (NaCl)) is recorded as “decreased; also recorded: reduced”. In series [1] (2DG 500 mg/kg daily P6 to P8, NaCl 28.48+/−5.39%), the “proliferation rates in the cyst lining epithelium (Ki67)” value is reported as 10.53+/−4.38%. In series [1] (setting [9]), the “brain weight normalized by body weight” value is “did not showed effect; also recorded: do not change” and the “liver weight normalized by body weight” value is reported as “did not showed effect; also recorded: do not change”. Further, in series [1] (2DG 500 mg/kg daily P6 to P8, mutant mice), the body weight result was “did not alter; also recorded: do not change”. In addition, in series [1] (setting [10]), the “number of normal and dilated tubules (cystic index)” value is “slightly reduced”; the “number of small cysts (cystic index)” value was “significantly reduced”. In addition, in series [1] (2DG 500 mg/kg daily subcutaneously P6 to P8, mutant mice, vs vehicle (NaCl)), the “ratio of kidney weight on body weight” value was “effect of the treatment with the 2DG only on mutant animals; also recorded: significantly reduced”. Besides, in series [1] (setting [11]), the “number of cysts (cystic index)” value was “significant decrease” and the “number of normal tubules (cystic index)” value is on record as “increased”. For the same compound, in series [2], the body weight entry is reported as “did not alter” and the kidney weight result was “did not affect”.

As to `NC(=O)c1ncn([C@@H]2O[C@H](CO)[C@@H](O)[C@H]2O)c1N` [AICAR, 5-aminoimidazole-4-carboxamide ribonucleoside], in series [3] (AICAR (1 mM)), the pAMPK levels result was “restored; also recorded: increased” and the pERK result is given as “restored to baseline levels; also recorded: inhibited”.

For the compound `N#CC(=C(/N)Sc1ccccc1N)/C(C#N)=C(/N)Sc1ccccc1N` [UO126], in series [3] (30 μM UO126 for 12 h), the pAMPK entry was “enhances”, the pERK entry was “restores normal” and the pS6RP entry is “restores normal”. The “pLKB1 levels (LKB1 phosphorylation at 5428)” value in series [3] (UO126, Pkd1^−/− MEFs) was “reduced”. In series [4], the “pLKB1 levels (LKB1 phosphorylation at 5428)” value is “reduced”.

For `CN(C)C(=N)N=C(N)N` [metformin], in series [3] (metformin (2 mM)), the pAMPK levels entry is reported as “restored; also recorded: increased” and the pERK result is “restored to baseline levels; also recorded: inhibited”. Further, the cyst expansion entry in series [5] is recorded as “effectively reduce”.

In the case of `CC[C@H]1/C=C/C=C/C[C@@H](C)[C@H](O)[C@@](C)(O)C(=O)[C@@H](C)[C@H](O)[C@@H](C)C(=O)[C@@H](C)[C@H](O)[C@@H](C)/C=C/C(=O)O[C@@H]2[C@H](C)[C@H](CC1)O[C@]1(CC[C@H](C)[C@H](C[C@@H](C)O)O1)[C@H]2C` [oligomycin], in series [6], the ATP content result is “decreased”.

In the case of `CO[C@H]1C[C@@H]2CC[C@@H](C)[C@@](O)(O2)C(=O)C(=O)N2CCCC[C@H]2C(=O)O[C@H]([C@H](C)C[C@@H]2CC[C@@H](O)[C@H](OC)C2)CC(=O)[C@H](C)/C=C(\C)[C@@H](O)[C@@H](OC)C(=O)[C@H](C)C[C@H](C)/C=C/C=C/C=C/1C` [rapamycin], the “number of autophagosomes per cells evaluated by EM” value is 0.96+/−0.18 a.u in series [7] and 2.87+/−0.55 a.u in series [8].
